Laboratory results from PubChem BioAssay (NCI).
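Growth conditions: 96-well plates. Treatment: test compound, 48 hours, 5 concentrations. Analysis: linear interpolation between bracketing concentrations; unreached endpoints set to highest concentration. TGI denotes the concentration required for complete inhibition of growth.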

Legend:
Assay in all cases: NCI anticancer screen, dose series, 48 h
A549 NSCLC = test system: A549 NSCLC
NCI-H23 lung = test system: NCI-H23 lung
HL-60(TB) leukemia = test system: HL-60(TB) leukemia
SF-539 CNS = test system: SF-539 CNS
ACHN renal = test system: ACHN renal
KM12 colon = test system: KM12 colon
MCF7 breast = test system: MCF7 breast
SK-OV-3 ovarian = test system: SK-OV-3 ovarian
MDA-MB-435 = test system: MDA-MB-435
OVCAR-8 ovarian = test system: OVCAR-8 ovarian
BT-549 breast = test system: BT-549 breast
NCI-H522 lung = test system: NCI-H522 lung
MDA-N = test system: MDA-N
SNB-75 CNS = test system: SNB-75 CNS
SK-MEL-5 melanoma = test system: SK-MEL-5 melanoma
OVCAR-4 ovarian = test system: OVCAR-4 ovarian
MALME-3M melanoma = test system: MALME-3M melanoma

COc1cc(C)cc2c1C(=O)C(NC(C)=O)=CC2=O
TGI (A549 NSCLC): > 100 µM
TGI (NCI-H23 lung): > 100 µM
TGI (HL-60(TB) leukemia): 53.2 µM
TGI (SF-539 CNS): > 100 µM
TGI (ACHN renal): > 100 µM
TGI (KM12 colon): > 100 µM
TGI (MCF7 breast): > 100 µM
TGI (SK-OV-3 ovarian): > 100 µM
TGI (MDA-MB-435): 31.3 µM
TGI (OVCAR-8 ovarian): > 100 µM
TGI (BT-549 breast): > 100 µM
TGI (NCI-H522 lung): > 100 µM
TGI (MDA-N): 32.8 µM
TGI (SNB-75 CNS): > 100 µM
TGI (SK-MEL-5 melanoma): > 100 µM
TGI (OVCAR-4 ovarian): 74.5 µM
TGI (MALME-3M melanoma): > 100 µM

COc1cccc(-c2nc(N)c(C#N)c3c2CCS(=O)(=O)c2ccc(C)cc2-3)c1
TGI (A549 NSCLC): > 100 µM
TGI (NCI-H23 lung): > 100 µM
TGI (HL-60(TB) leukemia): 37.5 µM
TGI (SF-539 CNS): > 100 µM
TGI (ACHN renal): > 100 µM
TGI (KM12 colon): > 58.4 µM
TGI (MCF7 breast): > 100 µM
TGI (SK-OV-3 ovarian): > 100 µM
TGI (MDA-MB-435): > 100 µM
TGI (OVCAR-8 ovarian): > 100 µM
TGI (BT-549 breast): > 100 µM
TGI (NCI-H522 lung): > 25.6 µM
TGI (MDA-N): > 42.6 µM
TGI (SNB-75 CNS): 54 µM
TGI (SK-MEL-5 melanoma): > 63.3 µM
TGI (OVCAR-4 ovarian): > 100 µM
TGI (MALME-3M melanoma): > 100 µM

c1ccc([P+](Cc2ccc(C[P+](c3ccccc3)(c3ccccc3)c3ccccc3)s2)(c2ccccc2)c2ccccc2)cc1
TGI (A549 NSCLC): > 100 µM
TGI (NCI-H23 lung): > 100 µM
TGI (HL-60(TB) leukemia): > 100 µM
TGI (SF-539 CNS): > 100 µM
TGI (ACHN renal): > 100 µM
TGI (KM12 colon): > 100 µM
TGI (MCF7 breast): > 100 µM
TGI (SK-OV-3 ovarian): > 100 µM
TGI (MDA-MB-435): > 100 µM
TGI (OVCAR-8 ovarian): > 100 µM
TGI (BT-549 breast): > 100 µM
TGI (NCI-H522 lung): > 100 µM
TGI (MDA-N): > 100 µM
TGI (SNB-75 CNS): > 100 µM
TGI (SK-MEL-5 melanoma): > 100 µM
TGI (OVCAR-4 ovarian): > 100 µM
TGI (MALME-3M melanoma): > 100 µM

COc1ccc(/C=C2\CC3C4CC=C5C[C@@H](N6CCCC6)CC[C@]5(C)C4CC[C@]3(C)[C@H]2O)cc1OC (stereo partly drawn)
TGI (A549 NSCLC): 17.6 µM
TGI (NCI-H23 lung): 17.6 µM
TGI (HL-60(TB) leukemia): 42.4 µM
TGI (SF-539 CNS): 15.1 µM
TGI (ACHN renal): 16 µM
TGI (KM12 colon): 14.2 µM
TGI (MCF7 breast): 14.8 µM
TGI (SK-OV-3 ovarian): 17.5 µM
TGI (MDA-MB-435): 14.3 µM
TGI (OVCAR-8 ovarian): 23.8 µM
TGI (BT-549 breast): 16.5 µM
TGI (NCI-H522 lung): 16 µM
TGI (MDA-N): 14.9 µM
TGI (SNB-75 CNS): 22.9 µM
TGI (SK-MEL-5 melanoma): 14.3 µM
TGI (OVCAR-4 ovarian): 17.1 µM
TGI (MALME-3M melanoma): 16.7 µM

N#Cc1ccccc1NC(=O)C(O)C(O)C(O)C(O)C=O (stereo not drawn)
TGI (A549 NSCLC): > 100 µM
TGI (NCI-H23 lung): > 100 µM
TGI (HL-60(TB) leukemia): > 100 µM
TGI (SF-539 CNS): > 100 µM
TGI (ACHN renal): > 100 µM
TGI (KM12 colon): > 100 µM
TGI (MCF7 breast): > 100 µM
TGI (SK-OV-3 ovarian): > 100 µM
TGI (MDA-MB-435): > 100 µM
TGI (OVCAR-8 ovarian): > 100 µM
TGI (BT-549 breast): > 100 µM
TGI (NCI-H522 lung): > 100 µM
TGI (MDA-N): > 100 µM
TGI (SNB-75 CNS): > 100 µM
TGI (SK-MEL-5 melanoma): > 100 µM
TGI (OVCAR-4 ovarian): > 100 µM
TGI (MALME-3M melanoma): > 100 µM

COc1ccc(C(=O)c2[nH]c(Nc3cc(C)ccn3)c(C(=S)Nc3ccccc3)c2N)cc1
TGI (A549 NSCLC): > 100 µM
TGI (NCI-H23 lung): 72.6 µM
TGI (HL-60(TB) leukemia): 64 µM
TGI (SF-539 CNS): 35.8 µM
TGI (ACHN renal): 97.4 µM
TGI (KM12 colon): 39.2 µM
TGI (MCF7 breast): 75.2 µM
TGI (SK-OV-3 ovarian): 47 µM
TGI (MDA-MB-435): 59.6 µM
TGI (OVCAR-8 ovarian): 52.4 µM
TGI (BT-549 breast): 42.5 µM
TGI (NCI-H522 lung): 29.9 µM
TGI (MDA-N): 56.2 µM
TGI (SNB-75 CNS): 50.9 µM
TGI (OVCAR-4 ovarian): 36.5 µM
TGI (MALME-3M melanoma): 30.8 µM

COc1ccc2c(c1)C1Oc3ccccc3CC1CO2 (stereo not drawn)
TGI (A549 NSCLC): > 100 µM
TGI (NCI-H23 lung): > 100 µM
TGI (HL-60(TB) leukemia): 50 µM
TGI (SF-539 CNS): > 100 µM
TGI (ACHN renal): > 100 µM
TGI (KM12 colon): > 100 µM
TGI (MCF7 breast): > 100 µM
TGI (SK-OV-3 ovarian): > 100 µM
TGI (MDA-MB-435): > 100 µM
TGI (OVCAR-8 ovarian): > 100 µM
TGI (BT-549 breast): > 100 µM
TGI (NCI-H522 lung): > 100 µM
TGI (MDA-N): > 100 µM
TGI (SNB-75 CNS): 98.7 µM
TGI (SK-MEL-5 melanoma): > 100 µM
TGI (OVCAR-4 ovarian): > 100 µM
TGI (MALME-3M melanoma): > 100 µM

CC1=NN(c2ccccc2Cl)C2(C1)C(Cl)C(=O)N2c1nc2ccccc2s1 (stereo not drawn)
TGI (A549 NSCLC): > 100 µM
TGI (NCI-H23 lung): > 100 µM
TGI (HL-60(TB) leukemia): 60.6 µM
TGI (ACHN renal): > 100 µM
TGI (KM12 colon): > 100 µM
TGI (MCF7 breast): > 100 µM
TGI (SK-OV-3 ovarian): > 100 µM
TGI (MDA-MB-435): > 100 µM
TGI (OVCAR-8 ovarian): > 100 µM
TGI (BT-549 breast): > 100 µM
TGI (NCI-H522 lung): 35 µM
TGI (MDA-N): > 100 µM
TGI (SNB-75 CNS): 89.9 µM
TGI (SK-MEL-5 melanoma): > 100 µM
TGI (OVCAR-4 ovarian): > 100 µM
TGI (MALME-3M melanoma): > 100 µM

COc1ccccc1OC/C(N=Cc1cccnc1)=N/NC(=O)c1ccncc1
TGI (A549 NSCLC): > 100 µM
TGI (NCI-H23 lung): > 100 µM
TGI (HL-60(TB) leukemia): > 100 µM
TGI (SF-539 CNS): > 100 µM
TGI (ACHN renal): > 100 µM
TGI (KM12 colon): > 100 µM
TGI (MCF7 breast): > 100 µM
TGI (SK-OV-3 ovarian): > 100 µM
TGI (MDA-MB-435): > 100 µM
TGI (OVCAR-8 ovarian): > 100 µM
TGI (BT-549 breast): > 100 µM
TGI (NCI-H522 lung): > 100 µM
TGI (MDA-N): > 100 µM
TGI (SNB-75 CNS): > 100 µM
TGI (OVCAR-4 ovarian): > 100 µM
TGI (MALME-3M melanoma): > 100 µM

CCSc1c2cc(OC)ccc2nc2ccc(OC)cc12
TGI (A549 NSCLC): > 100 µM
TGI (NCI-H23 lung): > 86.1 µM
TGI (HL-60(TB) leukemia): > 100 µM
TGI (SF-539 CNS): > 100 µM
TGI (ACHN renal): > 87.4 µM
TGI (KM12 colon): > 55.6 µM
TGI (MCF7 breast): > 100 µM
TGI (SK-OV-3 ovarian): > 92.5 µM
TGI (MDA-MB-435): > 57.7 µM
TGI (OVCAR-8 ovarian): > 59.2 µM
TGI (BT-549 breast): > 100 µM
TGI (NCI-H522 lung): > 48.2 µM
TGI (MDA-N): 21.7 µM
TGI (SNB-75 CNS): 40.3 µM
TGI (SK-MEL-5 melanoma): 30.3 µM
TGI (OVCAR-4 ovarian): > 75.8 µM
TGI (MALME-3M melanoma): 28.7 µM

COC(=O)/C=C1/OC(c2ccccc2)=C(Br)C1=O
TGI (NCI-H23 lung): > 100 µM
TGI (HL-60(TB) leukemia): > 100 µM
TGI (SF-539 CNS): > 100 µM
TGI (ACHN renal): > 100 µM
TGI (KM12 colon): > 100 µM
TGI (MCF7 breast): > 100 µM
TGI (SK-OV-3 ovarian): > 100 µM
TGI (MDA-MB-435): > 100 µM
TGI (OVCAR-8 ovarian): > 100 µM
TGI (BT-549 breast): 53.4 µM
TGI (NCI-H522 lung): 62.2 µM
TGI (MDA-N): > 100 µM
TGI (SNB-75 CNS): > 100 µM
TGI (SK-MEL-5 melanoma): > 100 µM
TGI (OVCAR-4 ovarian): > 100 µM
TGI (MALME-3M melanoma): > 100 µM
